Measured values: the NIST ThermoML archive (doi:10.1021/je300134c)

Assay: xn = mol fraction of the nth substance listed
Details: 101 kPa, Liquid; for speed of sound: Sing-around technique in a fixed-path interferometer; for mass density: Vibrating tube method

CCCC[N+]1(C)CCCC1.O=S(=O)([O-])C(F)(F)F [1-butyl-1-methylpyrrolidinium trifluoromethanesulfonate] + O
Details | mass density [kg/m3] | speed of sound [m/s]
278.15 K, x1 = 0.04996 | 1113.86 | 1595.9
278.15 K, x1 = 0.1 | 1163.55 | 1607.6
278.15 K, x1 = 0.1507 | 1190.82 | 1602.9
278.15 K, x1 = 0.1999 | 1208.34 | 1594.2
278.15 K, x1 = 0.2996 | 1229.14 | 1574.1
278.15 K, x1 = 0.3986 | 1240.96 | 1557
278.15 K, x1 = 0.4982 | 1248.7 | 1543.7
278.15 K, x1 = 0.5996 | 1254.27 | 1533.2
278.15 K, x1 = 0.6993 | 1258.35 | 1525.3
278.15 K, x1 = 0.8017 | 1261.86 | 1519.6
278.15 K, x1 = 0.8993 | 1264.45 | 1514
278.15 K, x1 = 1 | 1267.23 | 1513.5
288.15 K, x1 = 0.04996 | 1108.53 | 1594.7
288.15 K, x1 = 0.1 | 1156.83 | 1596.2
288.15 K, x1 = 0.1507 | 1183.59 | 1586
288.15 K, x1 = 0.1999 | 1200.79 | 1574.4
288.15 K, x1 = 0.2996 | 1221.49 | 1551.6
288.15 K, x1 = 0.3986 | 1233.35 | 1533.7
288.15 K, x1 = 0.4982 | 1241.17 | 1520
288.15 K, x1 = 0.5996 | 1246.83 | 1509.2
288.15 K, x1 = 0.6993 | 1251.01 | 1501
288.15 K, x1 = 0.8017 | 1254.33 | 1494.5
288.15 K, x1 = 0.8993 | 1256.9 | 1488.9
288.15 K, x1 = 1 | 1259.74 | 1486.1
298.15 K, x1 = 0.04996 | 1102.75 | 1590.4
298.15 K, x1 = 0.1 | 1149.85 | 1582.6
298.15 K, x1 = 0.1507 | 1176.19 | 1567.8
298.15 K, x1 = 0.1999 | 1193.14 | 1553.8
298.15 K, x1 = 0.2996 | 1213.77 | 1529
298.15 K, x1 = 0.3986 | 1225.71 | 1510.6
298.15 K, x1 = 0.4982 | 1233.63 | 1496.6
298.15 K, x1 = 0.5996 | 1239.37 | 1485.8
298.15 K, x1 = 0.6993 | 1243.63 | 1477.5
298.15 K, x1 = 0.8017 | 1247.06 | 1470.7
298.15 K, x1 = 0.8993 | 1249.64 | 1465
298.15 K, x1 = 1 | 1252.26 | 1461.4
308.15 K, x1 = 0.04996 | 1096.56 | 1583
308.15 K, x1 = 0.1 | 1142.62 | 1567
308.15 K, x1 = 0.1507 | 1168.56 | 1548.5
308.15 K, x1 = 0.1999 | 1185.37 | 1532.4
308.15 K, x1 = 0.2996 | 1206 | 1506.2
308.15 K, x1 = 0.3986 | 1218.04 | 1487.4
308.15 K, x1 = 0.4982 | 1226.07 | 1473.4
308.15 K, x1 = 0.5996 | 1231.92 | 1462.6
308.15 K, x1 = 0.6993 | 1236.25 | 1454.5
308.15 K, x1 = 0.8017 | 1239.76 | 1447.4
308.15 K, x1 = 0.8993 | 1242.39 | 1442
308.15 K, x1 = 1 | 1245.09 | 1437.8
318.15 K, x1 = 0.04996 | 1089.97 | 1572.9
318.15 K, x1 = 0.1 | 1135.15 | 1549.7
318.15 K, x1 = 0.1507 | 1160.74 | 1528
318.15 K, x1 = 0.1999 | 1177.49 | 1510.4
318.15 K, x1 = 0.2996 | 1198.16 | 1483.1
318.15 K, x1 = 0.3986 | 1210.34 | 1464.2
318.15 K, x1 = 0.4982 | 1218.51 | 1450.3
318.15 K, x1 = 0.5996 | 1224.48 | 1439.7
318.15 K, x1 = 0.6993 | 1228.9 | 1431.7
318.15 K, x1 = 0.8017 | 1232.49 | 1424.7
318.15 K, x1 = 0.8993 | 1235.16 | 1419.4
318.15 K, x1 = 1 | 1237.94 | 1414.9
328.15 K, x1 = 0.04996 | 1083.01 | 1560.3
328.15 K, x1 = 0.1 | 1127.45 | 1530.8
328.15 K, x1 = 0.1507 | 1152.76 | 1506.4
328.15 K, x1 = 0.1999 | 1169.5 | 1487.7
328.15 K, x1 = 0.2996 | 1190.27 | 1459.7
328.15 K, x1 = 0.3986 | 1202.62 | 1441
328.15 K, x1 = 0.4982 | 1210.95 | 1427.3
328.15 K, x1 = 0.5996 | 1217.05 | 1417
328.15 K, x1 = 0.6993 | 1221.57 | 1409.2
328.15 K, x1 = 0.8017 | 1225.24 | 1402.3
328.15 K, x1 = 0.8993 | 1227.97 | 1397.3
328.15 K, x1 = 1 | 1230.81 | 1392.7
338.15 K, x1 = 0.04996 | 1075.72 | 1545.4
338.15 K, x1 = 0.1 | 1119.53 | 1510.5
338.15 K, x1 = 0.1507 | 1144.53 | 1484
338.15 K, x1 = 0.1999 | 1161.26 | 1464.5
338.15 K, x1 = 0.2996 | 1182.3 | 1436.3
338.15 K, x1 = 0.3986 | 1194.89 | 1418
338.15 K, x1 = 0.4982 | 1203.39 | 1404.5
338.15 K, x1 = 0.5996 | 1209.64 | 1394.5
338.15 K, x1 = 0.6993 | 1214.26 | 1387
338.15 K, x1 = 0.8017 | 1218.03 | 1380.4
338.15 K, x1 = 0.8993 | 1220.81 | 1375.5
338.15 K, x1 = 1 | 1223.73 | 1371.1

CCCC[n+]1ccn(CC)c1.O=S(=O)([O-])C(F)(F)F + O
Details | mass density [kg/m3] | speed of sound [m/s]
278.15 K, x1 = 0.04992 | 1120.13 | 1524
278.15 K, x1 = 0.1001 | 1171.15 | 1521.3
278.15 K, x1 = 0.1498 | 1199.88 | 1514.7
278.15 K, x1 = 0.1998 | 1218.01 | 1505.6
278.15 K, x1 = 0.3013 | 1239.57 | 1484.6
278.15 K, x1 = 0.4012 | 1251.73 | 1467.7
278.15 K, x1 = 0.496 | 1259.25 | 1455.4
278.15 K, x1 = 0.6017 | 1265.19 | 1444.9
278.15 K, x1 = 0.7007 | 1269.28 | 1436.2
278.15 K, x1 = 0.8551 | 1274.04 | 1428
278.15 K, x1 = 0.9006 | 1275.29 | 1424.8
278.15 K, x1 = 1 | 1278.02 | 1420.6
288.15 K, x1 = 0.04992 | 1114.86 | 1527.1
288.15 K, x1 = 0.1001 | 1164.38 | 1513.5
288.15 K, x1 = 0.1498 | 1192.37 | 1500.2
288.15 K, x1 = 0.1998 | 1210.13 | 1487.1
288.15 K, x1 = 0.3013 | 1231.45 | 1462.7
288.15 K, x1 = 0.4012 | 1243.63 | 1444.7
288.15 K, x1 = 0.496 | 1251.19 | 1432
288.15 K, x1 = 0.6017 | 1257.22 | 1421
288.15 K, x1 = 0.7007 | 1261.36 | 1412.4
288.15 K, x1 = 0.8551 | 1266.2 | 1403.7
288.15 K, x1 = 0.9006 | 1267.39 | 1400.7
288.15 K, x1 = 1 | 1269.97 | 1396.3
298.15 K, x1 = 0.04992 | 1109.08 | 1526.5
298.15 K, x1 = 0.1001 | 1157.27 | 1503
298.15 K, x1 = 0.1498 | 1184.63 | 1484.1
298.15 K, x1 = 0.1998 | 1202.11 | 1467.7
298.15 K, x1 = 0.3013 | 1223.27 | 1440.8
298.15 K, x1 = 0.4012 | 1235.48 | 1422
298.15 K, x1 = 0.496 | 1243.13 | 1409
298.15 K, x1 = 0.6017 | 1249.23 | 1397.9
298.15 K, x1 = 0.7007 | 1253.44 | 1389.3
298.15 K, x1 = 0.8551 | 1258.37 | 1380.5
298.15 K, x1 = 0.9006 | 1259.57 | 1377.5
298.15 K, x1 = 1 | 1262.21 | 1373.1
308.15 K, x1 = 0.04992 | 1102.81 | 1522.5
308.15 K, x1 = 0.1001 | 1149.85 | 1490.2
308.15 K, x1 = 0.1498 | 1176.7 | 1466.4
308.15 K, x1 = 0.1998 | 1193.95 | 1447.6
308.15 K, x1 = 0.3013 | 1215.04 | 1418.7
308.15 K, x1 = 0.4012 | 1227.32 | 1399.3
308.15 K, x1 = 0.496 | 1235.04 | 1386.3
308.15 K, x1 = 0.6017 | 1241.24 | 1375.1
308.15 K, x1 = 0.7007 | 1245.51 | 1366.7
308.15 K, x1 = 0.8551 | 1250.54 | 1357.8
308.15 K, x1 = 0.9006 | 1251.76 | 1355
308.15 K, x1 = 1 | 1254.44 | 1350.6
318.15 K, x1 = 0.04992 | 1096.1 | 1515.2
318.15 K, x1 = 0.1001 | 1142.14 | 1475.1
318.15 K, x1 = 0.1498 | 1168.57 | 1447.5
318.15 K, x1 = 0.1998 | 1185.67 | 1426.7
318.15 K, x1 = 0.3013 | 1206.74 | 1396.3
318.15 K, x1 = 0.4012 | 1219.13 | 1376.7
318.15 K, x1 = 0.496 | 1226.96 | 1363.7
318.15 K, x1 = 0.6017 | 1233.26 | 1352.5
318.15 K, x1 = 0.7007 | 1237.61 | 1344.3
318.15 K, x1 = 0.8551 | 1242.74 | 1335.7
318.15 K, x1 = 0.9006 | 1243.97 | 1333
318.15 K, x1 = 1 | 1246.71 | 1328.6
328.15 K, x1 = 0.04992 | 1088.96 | 1504.9
328.15 K, x1 = 0.1001 | 1134.15 | 1458.2
328.15 K, x1 = 0.1498 | 1160.26 | 1427.4
328.15 K, x1 = 0.1998 | 1177.26 | 1405
328.15 K, x1 = 0.3013 | 1198.39 | 1373.8
328.15 K, x1 = 0.4012 | 1210.91 | 1354.1
328.15 K, x1 = 0.496 | 1218.87 | 1341.2
328.15 K, x1 = 0.6017 | 1225.3 | 1330.3
328.15 K, x1 = 0.7007 | 1229.73 | 1322.3
328.15 K, x1 = 0.8551 | 1234.98 | 1314
328.15 K, x1 = 0.9006 | 1236.23 | 1311.3
328.15 K, x1 = 1 | 1239.01 | 1307.1
338.15 K, x1 = 0.04992 | 1081.43 | 1492
338.15 K, x1 = 0.1001 | 1125.92 | 1439.7
338.15 K, x1 = 0.1498 | 1151.76 | 1406.4
338.15 K, x1 = 0.1998 | 1168.74 | 1382.8
338.15 K, x1 = 0.3013 | 1189.99 | 1351.2
338.15 K, x1 = 0.4012 | 1202.68 | 1331.6
338.15 K, x1 = 0.496 | 1210.79 | 1319
338.15 K, x1 = 0.6017 | 1217.37 | 1308.4
338.15 K, x1 = 0.7007 | 1221.89 | 1300.7
338.15 K, x1 = 0.8551 | 1227.27 | 1292.7
338.15 K, x1 = 0.9006 | 1228.53 | 1290.2
338.15 K, x1 = 1 | 1231.35 | 1286.1
